Series [1] has as its system ErbB2 protein. Briefly: ErbB2 protein expression in SKBr3 cells. Format: cell-based, human.
The test system of series [2] is ErbB2 protein. Briefly: ErbB2 protein expression in glioma cells. Format: cell-based.
The conditions of series [3]: background statement; cited from earlier work.
For series [4] the following is noted: clinical trials, cited from earlier work.
In series [5] the test system is DLD-1 cells (human colorectal cancer cells). Briefly: Cell viability (MTS) drug combination assay, combination index, DLD-1 cells. It is filed as cell-based. Particulars: combination with 17-AAG, CI<1 synergism. How it is done:
Human colon adenocarcinoma cell line, DLD-1, and human breast adenocarcinoma cell line, SKBr-3, were obtained from American Type Culture Collection (manassas, VA). […] Other cytotoxic agents were purchased commercially from suppliers such as Sigma Chemical Co. (St. Louis, Mo.) and Sequoia Research Products (Oxford, UK). Cells were seeded in duplicate in 96-well microtiter plates at a density of 5,000 cells per well and allowed to attach overnight. […] Cell viability was determined using the MTS assay (Promega). […] Based on the IC50 values of each individual drug, combined drug treatment was designed at constant ratios of two drugs, i.e., equivalent to the ratio of their IC50. Two treatment schedules were used: In one schedule, the cells were exposed to 24 hours of 17-AAG or 17-DMAG. The drug was then added to the cells and incubated for 48 hours. […] Cell viability was determined by the MTS assay. Synergism, additivity or antagonism was determined by median effect analysis using the combination index (CI) calculated using Calcusyn (Biosoft, Cambridge, UK). […] The quantities [Dx]1 and [Dx]2 represent the concentrations of the first and second drug, respectively, that when used alone provide a response of x % in the assay. […] The “enhancing” effect of two drugs can also be determined.

The test system of series [6] is SKBr cells (human breast cancer cells). The series is described as follows: Cell viability (MTS) drug combination assay, combination index, SKBr-3 cells. It is filed as cell-based. The conditions noted are these: combination with 17-AAG, CI<1 synergism. As for the experimental part: Human colon adenocarcinoma cell line, DLD-1, and human breast adenocarcinoma cell line, SKBr-3, were obtained from American Type Culture Collection (manassas, VA). […] Other cytotoxic agents were purchased commercially from suppliers such as Sigma Chemical Co. (St. Louis, Mo.) and Sequoia Research Products (Oxford, UK). Cells were seeded in duplicate in 96-well microtiter plates at a density of 5,000 cells per well and allowed to attach overnight. […] Cell viability was determined using the MTS assay (Promega). […] Based on the IC50 values of each individual drug, combined drug treatment was designed at constant ratios of two drugs, i.e., equivalent to the ratio of their IC50. […] The drug was then added to the cells and incubated for 48 hours. […] Cell viability was determined by the MTS assay. Synergism, additivity or antagonism was determined by median effect analysis using the combination index (CI) calculated using Calcusyn (Biosoft, Cambridge, UK). […] The quantities [Dx]1 and [Dx]2 represent the concentrations of the first and second drug, respectively, that when used alone provide a response of x % in the assay. […] The “enhancing” effect of two drugs can also be determined.

The mark [7] stands for this setting: 17-AAG Post-Administration (platinum complex 24 h, then 17-AAG 48 h).

Data on four molecules can be found in US20050020556A1, “Method for treating diseases using HSP90-inhibiting agents in combination with platinum coordination complexes” (Kosan Biosciences, Inc., priority 2003, published 2005).

Where two headings read alike, the source gives them in different places.

With “17-(allylamino)-17-desmethoxygeldanamycin [17-AAG]”, the “expression of ErbB2 protein” value in series [1] and in series [2] was “reduced the expression of ErbB2 protein” each time. Also, in series [3], the hepatotoxicity entry is “reduced hepatotoxicity”. Also, the MTD result in series [4] (daily x 5 schedule) is given as “about 40 mg/m^2”; in series [4] (once-weekly regimen), “about 308 mg/m^2”; in series [4] (twice-weekly regimen) it was “about 220 mg/m^2”.

Consider `CO[C@H]1/C=C\C=C(/C)C(=O)NC2=CC(=O)C(NCCN(C)C)=C(C[C@@H](C)C[C@H](OC)[C@H](O)[C@@H](C)/C=C(\C)[C@@H]1OC(N)=O)C2=O` [17-DMAG, 17-(2-dimethylaminoethyl)amino-17-desmethoxygeldanamycin], for which the “expression of ErbB2 protein” value in series [1] and in series [2] was “reduced the expression of ErbB2 protein” in each case.

Regarding `N.N.[Cl][Pt][Cl]` [Cisplatin, cisplatin], the “CI value (combination index)” value in series [5] (setting [7]) was “No Effect”; in series [5] (17-AAG Pre-Administration (17-AAG 24 h, then platinum complex 48 h), CI=1 additivity, CI>1 antagonism) it was “No Effect”; in series [6] (setting [7]) it was “Enhancement”; in series [6] (17-AAG Pre-Administration (17-AAG 24 h, then platinum complex 48 h)) it was “No Effect”.

In the case of `COC1=C2C[C@@H](C)C[C@H](OC)[C@H](O)[C@@H](C)/C=C(\C)[C@H](OC(N)=O)[C@@H](OC)/C=C\C=C(/C)C(=O)NC(=CC1=O)C2=O` [geldanamycin, Geldanamycin], the hepatotoxicity result in series [3] was “unacceptable hepatotoxicity”.
